{"source": "ChEMBL document CHEMBL1132012", "about": "“Synthesis and sulfatase inhibitory activities of (E)- and (Z)-4-hydroxytamoxifen sulfamates” (Bioorg Med Chem Lett, 1999)", "molecules": {"B1": {"name": "Steryl-sulfatase (Rattus norvegicus), P15589 (protein)", "chain": "MLWPCLLALLLSQLNFLCAARPGPGPNFLLIMADDLGIGDLGCYGNRTLRTPHIDRLALEGVKLTQHLAAAPLCTPSRAAFLTGRYPVRSGMASHGRLGVFLFSASSGGLPPNEVTFAKLLKGQGYTTGLVGKWHLGLSCQAASDFCHHPGRHGFDRFLGTPTTNLRDCKPGGGTVFGSAQQVFVVLPMNILGAVLLAMALARWAGLARPPGWVFGVTVAAMAAVGGAYVAFLYHFRPANCFLMADFTITQQPTDYKGLTQRLASEAGDFLRRNRDTPFLLFLSFMHVHTAHFANPEFAGQSLHGAYGDAVEEMDWAVGQVLATLDKLGLANNTLVYLTSDHGAHVEELGPNGERHGGSNGIYRGGKANTWEGGIRVPGLVRWPGVIVPGQEVEEPTSNMDVFPTVARLAGAELPTDRVIDGRDLMPLLLGHVQHSEHEFLFHYCNAYLSAVAWRPHNSSSVWKAFYFTPNFDPPGSNGCFSTHVCMCHGHHVTHHDPPLLFDIARDPRERHPLTPETEPRHGEILRNMDAAARAHVATLEEAPNQLSMSNVAWKPWLQLCLPSKPHPLACRCAGDG"}}, "key": {"Steryl-sulfatase": {"target": "T1, Steryl-sulfatase (Rattus norvegicus, UniProt P15589)", "T1 sequence (P15589 whole entry)": "B1 chain", "assay": "(§1) In vitro binding affinity against estrone sulfatase in rat liver microsomes", "design": "species or system Microsome"}, "[1]": {"substrate": "C[C@]12CC[C@@H]3c4ccc(OS(=O)(=O)O)cc4CC[C@H]3[C@@H]1CCC2=O", "assay": "as §1", "conditions": "Microsome"}}, "data": [{"molecule": "CC/C(=C(\\c1ccc(OCCN(C)C)cc1)c1ccc(OS(N)(=O)=O)cc1)c1ccccc1", "values": [{"measurement": "Ki", "setting": "Steryl-sulfatase", "value": "> 500", "unit": "µM"}]}, {"molecule": "CC/C(=C(/c1ccc(OCCN(C)C)cc1)c1ccc(OS(N)(=O)=O)cc1)c1ccccc1", "values": [{"measurement": "Ki", "setting": "Steryl-sulfatase", "value": 35.9, "unit": "µM"}]}, {"molecule": "B1", "values": [{"measurement": "Km", "setting": "[1]", "value": 90.2, "unit": "µM"}]}]}
